Tests used:
[1] = target: T1, 5-hydroxytryptamine receptor 2B (Homo sapiens, UniProt P41595); assay: Antagonist activity at 5HT2B (unknown origin) expressed in FRT cells co-expressing ANO1 and YFP assessed as inhibition of 5HT-induced increase in iodide influx at 1 uM preincubated with compound for 10 mins followed by 5-HT addition and measured after 8 sec by YFP fluorescence quenching analysis relative to control; format: cell-based; conditions: time 608.0 sec
[2] = target: T1, 5-hydroxytryptamine receptor 2B; assay: Antagonist activity at 5HT2B (unknown origin) expressed in FRT cells co-expressing ANO1 and YFP assessed as inhibition of 5HT-induced increase in iodide influx preincubated with compound for 10 mins followed by 5-HT addition and measured after 8 sec by YFP fluorescence quenching analysis; format: cell-based
[3] = target: T1, 5-hydroxytryptamine receptor 2B; assay: Binding affinity to 5-HT2B (unknown origin)
[4] = Drug concentration in male mouse brain at 5 mg/kg, ip measured after 0.5 hrs; format: ADME, organism-based; conditions: read-out: Ct
[5] = Drug concentration in male mouse plasma at 5 mg/kg, ip measured after 0.5 hrs; format: ADME, organism-based
[6] = Ratio of drug concentration in male mouse brain to plasma at 5 mg/kg, ip measured after 0.5 hrs; format: ADME, organism-based; conditions: brain and plasma, read-out: BPR

T1 sequence (P41595 whole entry): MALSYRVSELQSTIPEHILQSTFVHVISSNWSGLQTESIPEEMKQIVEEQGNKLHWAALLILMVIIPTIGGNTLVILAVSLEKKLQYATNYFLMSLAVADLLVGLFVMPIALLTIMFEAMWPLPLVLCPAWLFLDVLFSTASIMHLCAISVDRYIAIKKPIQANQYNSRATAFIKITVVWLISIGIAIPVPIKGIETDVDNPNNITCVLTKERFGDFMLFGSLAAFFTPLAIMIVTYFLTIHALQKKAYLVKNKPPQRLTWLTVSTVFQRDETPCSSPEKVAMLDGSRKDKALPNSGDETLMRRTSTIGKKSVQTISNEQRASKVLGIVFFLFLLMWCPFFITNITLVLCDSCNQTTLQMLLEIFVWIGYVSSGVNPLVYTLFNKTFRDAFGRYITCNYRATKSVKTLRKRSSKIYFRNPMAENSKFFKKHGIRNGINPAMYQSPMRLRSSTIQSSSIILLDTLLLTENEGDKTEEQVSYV

Row | inhibition ([1]; filed as antagonist) [%] | IC50 [2] [nM] | SMILES | also measured
1 | – | – | COc1ccc(S(=O)(=O)N[C@H]2CCOC2)cc1C(=O)Nc1ccccc1N1CCNCC1 | inhibition [1]: 15%
2 | 47.1 | – | COc1ccc(S(=O)(=O)NC2CCN(C(=O)OC(C)(C)C)CC2)cc1C(=O)Nc1ccccc1Cl | –
3 | 97.8 | – | COc1ccc(S(=O)(=O)N[C@@H]2CCNC2)cc1C(=O)Nc1ccccc1Cl | –
4 | 103 | 10 | COc1ccc(S(=O)(=O)N[C@H]2CCN(C(=O)C[C@H](N)C(=O)O)C2)cc1C(=O)Nc1ccccc1Cl | –
5 | – | – | C[C@@H]1CN(C(=N)NCc2ccccc2)N=C1c1cccc(Cl)c1O | IC50 [3]: < 1 nM
6 | 93.7 | – | COc1ccc(S(=O)(=O)N[C@H]2CCNC2)cc1C(=O)Nc1ccccc1Cl | –
7 | 96.1 | – | COc1ccc(S(=O)(=O)N[C@H]2CCN(C(=O)OC(C)(C)C)C2)cc1C(=O)Nc1ccccc1Cl | –
8 | – | – | COc1ccc(S(=O)(=O)N[C@H]2CCOC2)cc1C(=O)Nc1ccccc1NC(=O)OC(C)(C)C | inhibition [1]: 20.1%
9 | 98.8 | 1.8 | COc1ccc(S(=O)(=O)N[C@H]2CCOC2)cc1C(=O)Nc1ccccc1Cl | concentration at 0.5 h [4]: 51.7 ng/g; concentration at 0.5 h [5]: 99.2 ng/mL; Kp at 0.5 h [6]: 0.53
10 | 94.5 | 7.22 | COc1ccc(S(=O)(=O)N[C@H]2CCN(C(=O)[C@@H](N)CCC(=O)O)C2)cc1C(=O)Nc1ccccc1Cl | –
